According to patent publication US10653691B2, “Method of promoting remyelination” (Case Western Reserve University, priority 2013, dated 2020):

Columns and labels:
[1] = test system: PLP139-151 EAE mouse model; assay: PLP139-151-induced relapsing remitting EAE; format: in vivo
Excerpt: Six- to seven-week-old female SJL/J mice were induced with PLP139-151 as for ex vivo recall assays. Mice were allowed to progress to disease onset at day 13 before being randomized into treatment groups (n=10 mice per group). […] This period fully encompassed the acute phase of disease onset followed by remission and the primary disease relapse. Treatments were blinded to the experimenters performing the assays.

glucocorticoid receptor = assay: Western blot of glucocorticoid receptor phosphorylation at Ser220 in OPCs; format: cell-based, mouse; conditions: OPCs treated for 1 h
Experimental: EpiSC-derived OPCs were seeded into poly-Lornithine/laminin coated six-well plates and allowed to attach for 2 h in DMEM/F12 without additional factors. Cells were treated with indicated inhibitors or DMSO for 1 h-SCH772984 (ChemieTek, 1 mM), SB590885 (Tocris, 10 nM), LY294002 (Tocris, 10 μM), and PD0325901 (Stemgent, 1 μM). Cells were then stimulated with drug or FGF2 (R&DSystems; 20 ng ml^−1) for 1 h and then lysed in 200 μL RIPA buffer (0.15 M NaCl, 0.05M Tris, pH=8.0, 1 mM EDTA, 1% Triton X-100, 0.1% SDS, 10% glycerol, HALT protease and phosphatase inhibitor (Thermo Fisher) added just before use) and incubated on ice for 20 min. Lysates were centrifuged at 4° C. and supernatant collected. Protein concentrations were determined by Pierce BCA protein assay kit (Thermo Fisher). […] Blots were blocked in either 5% BSA (phosphoprotein) or 5% milk (non phosphoprotein).

mouse OPCs [2] = assay: RNA sequencing of drug-treated OPCs; format: cell-based; conditions: 2, 6 or 12 h of drug treatment
Experimental: Cells were lysed directly in 1 ml TRIzol (Invitrogen) and stored at −80° C. Once all samples were collected, samples were thawed on ice and separated with chloroform using Phase Lock Gel tubes (5 PRIME). RNA was isolated using the miRNeasy PlusMini Kit (Qiagen) according to the manufacturer's protocol. One microgram of each sample was then poly-A selected, fragmented, and library prepared using the TruSeqRNA Sample Prep Kit (Illumina) according to the manufacturer's protocol. Samples were indexed using TruSeq adapters. One hundred base-pair paired-end reads were generated for each sample on an Illumina HiSeq 2500 instrument at the Case Western Reserve University Genomics Core facility. Between 5 million and 13 million reads were generated per sample for drug time course experiments. […] EpiSCs, EpiSC OPCs, and in vivo OPCs were sequenced to depths of 51,271,458 reads, 61,072,460 reads, and 62,530,709 reads, respectively. […]
Reference genome files were retrieved from Illumina iGenomes. Reads were aligned to the mm9 genome using Tophat version 2.0.8 with default settings. Expression values of known RefSeq genes were calculated in units of fragments per kilobase per million reads (FPKM) using Cufflinks version 2.0.2. […] The collective list of changed genes for each drug was evaluated with Ingenuity Pathway Analysis (application build 261899, content version 18030641).

naive CD4+ T cells = assay: Naive CD4+ T-cell assays; format: cell-based, mouse; conditions: Th1 or Th17 driving conditions, 4 days
Experimental: Naive CD4+ T cells (CD4+L-selectin^hi cells) were purified using AutoMacs Magnetic Bead cell separation technology (Miltenyi Biotech) from total lymph node cells isolated from unprimed mice with purity ranging from 98 to 99.9%. For in vitro activation, 5×10^5 naive CD4^+ T cells were activated in the presence of plate-bound anti CD3 (1 μgml^−1) plus Th1—(200 U ml^−1 interleukin-2 (IL-2), 40 U ml^−1 IL-12, 10 μgml^−1 anti-IL-4) or Th17—([…], 50 ng ml^−1 IL-6, 1 μgml^−1 anti-IFN-γ, 1 μgml^−1 anti-IL-4, 1 μgml^−1 anti-IL-2) promoting conditions. On day 4, the cultured T cells were collected and the percentage of viable cytokine positive cells assessed by flow cytometry. The cells were stained with a LIVE/DEAD Fixable Violet Dead Cell Stain Kit, for 405 nm excitation (Life Technologies), anti CD4-APC/Cy7 (clone RM4-5), anti-IFN-γ-PerCP/Cy5.5 (clone XMG1.2), and anti-IL-17-APC (clone eBio17B7) (eBioscience). Viable cells (5×10^5) were analysed per individual sample using a BD Canto II cytometer (BD Biosciences), and the data were analysed using FloJo version 9.5.2 software (Tree Star).

EpiSC-derived OPCs = assay: Dose-response testing of drug hits (percent PLP1+ oligodendrocytes, cytotoxicity); format: cell-based, mouse; conditions: seven point dose response; seen only at the highest 6.7 μM dose
Excerpt: Dose-response testing of drug hits followed the same procedure with the following modifications to eliminate any artefacts in the primary screen: independently sourced drugs; a distinct batch of EpiSC-derived OPCs from a mouse of opposite sex; multi-dose testing; cytotoxicity analysis; an alternative marker of mature oligodendrocytes proteolipid protein 1 (PLP1, antibody clone AA3 provided by B. Trapp; 1:5,000); and an alternative high content assay endpoint parameter (percentage of oligodendrocytes differentiated instead of process intensity and length parameters). […]
For the 5 μM in vitro screen, stained plates were imaged on the Opera confocal imaging system (PerkinElmer) and a set of 24×10 fields were collected from each well, resulting in an average of 10,000 cells being scored per well. For the dose-response (6.7 μM, 5 μM, 3.3 μM, 1.7 μM, 666 nM, 500 nM, and 333 nM) in vitro assays, plates were imaged on the Operetta High Content Imaging and Analysis system (PerkinElmer) and a set of 14×20 fields captured from each well resulting in an average of 3,300 cells being scored per well. […] Each traced nucleus region was then expanded by 50% and cross-referenced with the mature myelin protein (MBP or PLP1) stain to identify oligodendrocyte nuclei, and from this the percentage of oligodendrocytes was calculated. […]

mouse OPCs [3] = assay: Global phosphoproteomics of drug-treated OPCs; format: cell-based; conditions: 1 and 5 h after treatment
Experimental: Briefly, for each sample 30 million cells were lysed with 2% SDS solution with protease and phosphatase inhibitor (Thermo Fisher), and detergent was removed on 200 μl of the cell lysate using the FASP cleaning procedure. Each sample was digested by a two-step Lys-C/trypsin proteolytic cleavage and subjected to phospho-enrichment using a commercially available TiO2 enrichment spin tips (Thermo Fisher). LC-MS/MS analysis used a UPLC system (NanoAcquity, Waters) that was interfaced to an Orbitrap ProVelos Elite MS system (Thermo Fisher). Fold-change calculations were determined from peptide intensities for each drug versus DMSO at each time point. Phosphopeptides with greater than twofold change were imported into Ingenuity Pathway Analysis to elucidate signalling pathways perturbed with drug treatment.

SMILES | efficacy in reducing disease severity ([1]; daily i.p. day 13 to 29, clobetasol 2 mg/kg, miconazole 10 mg/kg, benztropine 10 mg/kg) | T cells within the spleen ([1]; day 29, 2 mg/kg) | phosphorylation of glucocorticoid receptor at Ser220 (glucocorticoid receptor) | modulation of gene expression (mouse OPCs [2]) | naive T-cell differentiation (naive CD4+ T cells) | toxicity and decrease in PLP1 positive cells in dose response (EpiSC-derived OPCs) | pathways affected in phosphoproteomic analysis (mouse OPCs [3])
C[C@H]1C[C@H]2[C@@H]3CCC4=CC(=O)C=C[C@]4(C)[C@@]3(F)[C@@H](O)C[C@]2(C)[C@@]1(O)C(=O)CCl [clobetasol] | showed efficacy in reducing disease severity | severe reduction of T cells within the spleen | increased the phosphorylation of glucocorticoid receptor at Ser220 | potently modulated genes downstream of multiple nuclear hormone receptors | altered naïve T-cell differentiation | – | –
Clc1ccc(COC(Cn2ccnc2)c2ccc(Cl)cc2Cl)c(Cl)c1 (stereo not shown) [miconazole] | – | – | – | – | – | Slight toxicity and a decrease in PLP1 positive cells | proteins in the mitogen-activated protein (MAP) kinase pathway were most strongly affected
